Measured values published in US10335420B2, “Nanoparticle-based tumor-targeted drug delivery” (The Scripps Research Institute, priority 2010, dated 2019).
Read-outs that look alike come from different tables or passages of the source.

Legend:
4TO7 tumors = assay: 4TO7 tumor growth in mice treated with Leg-NP-CDDO; format: in vivo, BALB/c mice; details: 8 i.v. injections
Method: In vivo tumor studies. 4TO7 (5×10^3) cells or MMTV-Neu (1×10^4) primary tumor cells were injected orthotopically into female BALB/c or FVB/NJ mice, respectively. NPs in 200 μl of PBS (about 1.36×10^13 particles) were administered i.v. and tumor dimensions measured using digital microcalipers. Tumor volume was calculated using the formula [(a^2×b)/2], where ‘a’ is the larger of two perpendicular diameters. For recurrence studies, primary tumors were surgically removed and mice re-challenged orthotopically in the contralateral mammary fat pad. Mice were vaccinated 3 times orally at 1 week intervals by gavage with attenuated salmonella typhimuirum (1×10^8 CFU per mouse) transduced with either pNeuTm (provided by Wei-Zen Wei, Karmanos Cancer Center, Detroit, Mich., USA) or empty vector.
Leg-NP-CDDO suppresses growth of murine breast tumors. To evaluate the in vivo effects of Leg-NP-CDDO, BALB/c mice were orthotopically challenged with about 5×10^3 4TO7 tumor cells and 4 days later, treated them with 8 i.v. injections of Leg-NP-CDDO or controls (FIG. 7A).

4TO7 orthotopic tumors = assay: Doxorubicin biodistribution in tumor-bearing mice by fluorescence microscopy; format: in vivo; details: two i.v. injections, about 24 h after the last injection
Method: Doxorubicin was also loaded into RR-11a^− NPs (NP-Dox) as a control. […] Data represent means±s.e.m. The percentage of the drug uptake concentration was determined by comparing the MFI of RDZ-218, NP-Dox, and Free Dox-treated cells with that of serially diluted doxorubicin; see FIG. 2b. […] Data is shown relative to untreated cells (Control); n=3 wells per group. Data represent means±s.e.m. *p<0.05, **p<0.005. 4TO7 cells were injected into the inguinal mammary fat pad of female BALB/c mice. Tumors were allowed to establish for about 5 d, to a size of approximately 500 mm^3, after which mice were given two i.v. injections with RDZ-218, NP-Dox or Free Dox. Mice were sacrificed about 24 h after the last injection and tissues were isolated and immediately analyzed by fluorescence microscopy to detect distribution of doxorubicin; see FIG. 2d. Tissue sections were also stained with DAPI to visualize cell nuclei; n=2 mice per group; scale bars, 100 μm.

[1] = format: in vivo; details: 5 mg/kg doxorubicin i.v.
Method: The dose of doxorubicin for all groups was 5 mg/kg.
Female BALB/c mice were injected orthotopically with 4TO7 breast tumor cells. Tumors were allowed to establish and reach a size of approximately 500 mm^3 prior to treatment. […] Doxorubicin was administered at about 5 mg/kg in 200 μl of PBS for all groups; n=5 mice per group.

Structure (SMILES)	primary tumor growth (4TO7 tumors)	dose required for effective Stat3 inhibition (STAT-3) [nmol/L]	doxorubicin fluorescence in tumors (4TO7 orthotopic tumors)	number of mice surviving, out of a total of 5 ([1]; after treatment 0)	number of mice surviving, out of a total of 5 ([1]; after treatment 1, 24-hour intervals)
CC1(C)CC[C@]2(C(=O)n3ccnc3)CC[C@]3(C)[C@H](C(=O)C=C4[C@@]5(C)C=C(C#N)C(=O)C(C)(C)[C@@H]5CC[C@]43C)[C@@H]2C1 [CDDO-Im, 1-[2-cyano-3-,12-dioxooleana-1,9(11)-dien-28-oyl]imidazole]	markedly less effective	100	–	–	–
COc1cccc2c1C(=O)c1c(O)c3c(c(O)c1C2=O)C[C@@](O)(C(=O)CO)C[C@@H]3O[C@H]1C[C@H](N)[C@H](O)[C@H](C)O1 [Free Dox, doxorubicin]	–	–	strikingly reduced or punctate	5/5	0/5
